Experimental data reported in patent US20040087653A1, “Methods for the treatment of respiratory diseases and conditions with a selective iNOS inhibitor and a PDE inhibitor and compositions therefor” (priority 2002, published 2004).
pIC50: −log10 of the molar value. Counter-ions that a name gives are not always drawn.

What was measured:
[1] = Clinical study: tolerability, FEV1, blood pressure, heart rate, laboratory parameters; assay type: in vivo, human; conditions: single oral dose
Procedure: (§1) A single center study was performed at the National Heart and Lung Institute (NHLI) Clinical Studies Unit in London, UK. The clinical protocol was submitted and accepted by the Ethics Committee of the Royal Brompton Hospital Trust, and the study was carried out according to Good Clinical Practice standards. Each subject provided written informed consent.
(§2) Twenty-four, adult, healthy volunteers and 24 patients with mild asthma participated in this study. All subjects were lifelong non-smokers. Asthma patients (n=24) had mild asthma according to American Thoracic Society Criteria, with medication on an as required basis with inhaled albuterol only. […] All asthmatic patients had baseline exhaled breath NO levels of >15 parts per billion (ppb). Healthy control (n=24) subjects were matched for age and sex, and had no clinically significant disease. Healthy subjects were required to have baseline exhaled NO levels between 4 and 9 ppb.
(§3) The study included 2 panels of healthy volunteers and asthmatic patients who received in a double-blind, randomized manner, a single dose of oral compound NN or placebo. The study was carried out in two phases according to the dose of compound NN under investigation. The first panel consisted of patients with mild-to-moderate asthma (n=12) and healthy subjects (n=12) who received single doses of 20 mg of compound NN and placebo, while the second panel of mild-to-moderate asthmatics (n=12) and healthy subjects (n=12) received single doses of 200 mg of compound NN and placebo. No patient or subject participated in both panels of this study. Evaluation of the first panel was completed before moving on to the second panel. The study evaluated the tolerability and pharmacokinetics of orally-administered compound NN and monitored levels of exhaled breath NO.
Forced expiratory volume in 1 sec (FEV1) and heart rate data had no significant deviations from normality using the Shapiro-Wilks test, therefore parametric statistical methods were used, and the significance of the change from baseline was tested using a paired […]. […]

i-NOS = i-NOS (Homo sapiens, UniProt P35228); experiment: i-NOS inhibition, comparison with NIL amides
[2] = target: T1, human endothelial constitutive NOS (hecNOS) (Homo sapiens, UniProt P29474); experiment: Citrulline assay for nitric oxide synthase, hecNOS; assay type: biochemical; conditions: averages across all experiments and all lots; 30 μM L-arginine
T1 construct: made in house; host or cells: Sf9 insect cells, baculovirus vector
Text: Nitric oxide synthase (NOS) activity can be measured by monitoring the conversion of L-[2,3-^3H]-arginine to L-[2,3-^3H]-citrulline (Bredt and Snyder, Proc. Natl. Acad. Sci. U.S.A., 87, 682-685, 1990 and Moore et al, J. Med. Chem., 39, 669-672, 1996). Human inducible NOS (hiNOS), human endothelial constitutive_NOS (hecNOS) and human neuronal constitutive NOS (hncNOS) are each cloned from RNA extracted from human tissue. The cDNA for human inducible NOS (hiNOS) is isolated from a λcDNA library made from RNA extracted from a colon sample from a patient with ulcerative colitis. The cDNA for human endothelial constitutive NOS (hecNOS) is isolated from a λcDNA library made from RNA extracted from human umbilical vein endothelial cells (HUVEC) and the cDNA for human neuronal constitutive NOS (hncNOS) is isolated from a λcDNA library made from RNA extracted from human cerebellum obtained from a cadaver. The recombinant enzymes are expressed in Sf9 insect cells using a baculovirus vector (Rodi et al, in The Biology of Nitric Oxide, Pt. 4: Enzymology, Biochemistry and Immunology; Moncada, S., Feelisch, M., Busse, R., Higgs, E., Eds.; Portland Press Ltd.: London, 1995; pp 447-450). […] After mixing the resin is allowed to settle and L-[2,3-^3H]-Citrulline formation is determined by counting aliquots of the supernatant with a liquid scintillation counter. […]

[3] = tested on: exhaled breath nitric oxide (NO); experiment: Clinical study: exhaled breath NO after single oral dose; assay type: in vivo, human
Procedure: as §1, §2, §3
Measurement of exhaled NO: Exhaled NO was measured using a chemoluminescence analyzer (Logan 2000, Rochester, UK) and methods in accordance with International Guidelines. The analyser was calibrated daily using a certified NO mixture of 50 to 200 ppb (BOC Special gases, Guildford, UK) and ambient air NO recordings made on an hourly basis. Subjects were asked to refrain from strenuous exercise before any measurement. Each subject was seated for at least 5 minutes before any measurement was taken and remained seated throughout the procedure. […] Two successive recordings were taken, and the average value was calculated.
Statistical methods for clinical data: Exhaled NO data, including change from baseline and the percentage change, were tested for normality using the Shapiro-Wilks test. […] The area under the curve (AUC) for the change from baseline and the percentage change, and the differences between active and placebo were calculated. […]

[4] = tested on: iNOS protein expression in human primary airway epithelial cells; experiment: Western blotting of iNOS from cultured epithelial cells; assay type: cell-based; conditions: cytokine-stimulated cells, various concentrations
Procedure: Western blotting of iNOS from cultured epithelial cells: Following incubation with the cytokine mixture alone or with various concentrations of L-NIL, epithelial cells were lysed in 50 mM Tris/HCl, pH 7.4, containing 0.25 mM ethylene diaminotetraacetic acid, 0.5 mM phenylmethylsulfonyl fluoride, 5 μg/ml antipain, 5 μg/ml leupeptin and 5 μg/ml benzaminidine. The protein concentration was determined using the BioRad protein assay kit according to the manufacturer's instructions. Cell proteins were solubilized in sodium dodecyl sulfate polyacrylamide gel electrophoresis sample buffer ([…] Tris/HCl, pH 6.8, containing 10% v/v glycerol, 1% w/v SDS, 1% w/v β-mercaptoethanol, and 0.01% w/v bromophenol blue). The proteins (15 μg per lane) were resolved by electrophoresis in 3-8% (w/v) Tris-acetate SDS-polyacrylamide gels and transferred to Hybond-Enhanced Chemi-luminescence (ECL) nitro-cellulose membranes. Equal protein loading was determined by staining the blot with 0.1% (w/v) Ponceau S in 5% (v/v) acetic acid. The nitro-cellulose was then blocked overnight at 4° C. in 0.5M Tris-HCl,pH 7.4, containing 3% (w/v) normal goat serum, 1% (w/v) bovine serum albumin and 0.05% (v/v) Tween-20. […]
Media was harvested and measured for nitrite content (FIG. 1). […]

[5] = tested on: human primary airway epithelial cells; experiment: Nitrite in media of cytokine-stimulated human primary airway epithelial cells; assay type: cell-based; conditions: cells cultured 24 h with 50 ng/ml IL-1β, TNF-α and IFN-γ; read-out: IC50, inhibition of the increase in nitrite in the media
Procedure: Human primary airway epithelial cell cultures: Human primary airway epithelial cells were cultured as described previously (see Donnelly,L. E. and Barnes,P. J. Am J Respir Cell Mol.Biol 24:295-303 (2000)), and the amount of nitrite, the stable oxidation product of NO, in the cell culture media was measured using a modification of the spectrofluorometric method of Misko et al., Anal. Biochem. 4:11-16 (1993).
The protein was evenly distributed throughout the cytoplasm in basal cells but clearly located beneath the cilia in the columnar, ciliated cells. Treatment of airway epithelial cells with 50 ng/ml of IL-1β, TNF-α and IFN-γ (cytomix) for 24 h caused an induction of iNOS protein and an increase in the accumulation of nitrite in cell culture media from 2.20±0.2 μM in the absence of cytomix, to 3.5±0.4 μM in the presence of cytomix.
Media was harvested and measured for nitrite content (FIG. 1). Cellular proteins were resolved on 3-8% tris-acetate polyacrylamide gels and immunoblotted for iNOS protein (FIG. 2).

PDE V = PDE V (Homo sapiens, UniProt O76074); conditions: printed only as numerator of 8/0.0008; cited from earlier work
PDE IV [6] = experiment: PDE IV inhibition (Hatzelmann et al.)
Procedure: PDE inhibition is then determined by the presence or absence of substrate degradation products. […] The relative ability of an inhibitory compound to slow or prevent the degradation of tritiated cyclic nucleotides is one test that is indicative of how well the compound in question selects one or more of each isoform to inhibit.
In practice, the in vitro selectivity of a PDE IV inhibitor may vary depending upon the condition under which the test is performed and on the inhibitors being tested. However, for the purposes of this specification, the selectivity of a PDE IV inhibitor can be measured as a ratio of the in vitro IC50 value for inhibition of any other isoform of the phosphodiesterase enzyme (Z) other than PDE IV, divided by the IC50 value for inhibition of PDE IV (PDE Z IC50/PDE IV IC50), where Z identifies any PDE other than PDE IV.

PDE I = conditions: Hatzelmann et al. 2001; cited from earlier work
PDE IV [7] = tested on: T2, PDE IV; conditions: Hatzelmann et al. 2001; cited from earlier work
T2 construct: other: Hatzelmann et al. 2001

[8] = healthy volunteers and asthmatics

Chain of i-NOS (P35228 whole entry): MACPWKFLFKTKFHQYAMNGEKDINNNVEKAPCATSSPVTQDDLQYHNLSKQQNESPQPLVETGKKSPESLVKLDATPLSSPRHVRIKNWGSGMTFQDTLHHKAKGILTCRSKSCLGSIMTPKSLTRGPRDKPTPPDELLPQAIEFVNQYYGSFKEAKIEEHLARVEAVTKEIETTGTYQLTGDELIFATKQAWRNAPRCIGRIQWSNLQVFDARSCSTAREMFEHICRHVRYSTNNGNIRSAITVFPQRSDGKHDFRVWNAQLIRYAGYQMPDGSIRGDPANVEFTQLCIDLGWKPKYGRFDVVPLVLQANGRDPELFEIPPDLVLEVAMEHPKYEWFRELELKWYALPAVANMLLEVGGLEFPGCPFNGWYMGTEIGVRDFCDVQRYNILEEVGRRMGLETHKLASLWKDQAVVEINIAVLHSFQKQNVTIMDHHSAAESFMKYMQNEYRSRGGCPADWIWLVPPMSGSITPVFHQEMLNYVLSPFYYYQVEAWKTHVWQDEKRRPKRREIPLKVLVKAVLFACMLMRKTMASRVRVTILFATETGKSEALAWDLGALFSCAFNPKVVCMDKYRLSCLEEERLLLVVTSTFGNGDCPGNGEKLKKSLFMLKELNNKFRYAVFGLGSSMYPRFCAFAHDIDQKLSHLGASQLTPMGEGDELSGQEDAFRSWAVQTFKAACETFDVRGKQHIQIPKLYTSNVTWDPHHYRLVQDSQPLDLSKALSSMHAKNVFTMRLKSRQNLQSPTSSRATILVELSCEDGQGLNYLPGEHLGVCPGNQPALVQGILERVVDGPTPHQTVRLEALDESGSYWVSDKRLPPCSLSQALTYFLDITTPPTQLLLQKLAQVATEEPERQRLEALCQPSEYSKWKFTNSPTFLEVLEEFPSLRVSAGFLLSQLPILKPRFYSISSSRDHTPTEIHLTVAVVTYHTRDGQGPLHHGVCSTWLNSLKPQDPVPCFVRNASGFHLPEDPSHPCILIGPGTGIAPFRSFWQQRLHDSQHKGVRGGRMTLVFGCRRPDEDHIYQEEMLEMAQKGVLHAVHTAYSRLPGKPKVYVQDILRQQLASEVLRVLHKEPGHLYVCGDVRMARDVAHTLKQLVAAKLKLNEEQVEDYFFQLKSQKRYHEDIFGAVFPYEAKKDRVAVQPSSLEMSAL

CC(=N)NCCCC[C@H](N)C(=O)Nc1nnn[nH]1 [Example NN, 2S-amino-6-[(1-iminoethyl)amino]-N-(1H-tetrazol-5-yl)hexanamide, hydrate, dihydrochloride]
effect on haematology or blood biochemistry [1]: no effect | effects on heart rate, blood pressure and FEV1 [1]: no apparent effects | tolerability [1, 8]: well tolerated | i-NOS inhibitory potency compared with NIL amide or NIL dimethylamide (i-NOS): more potent i-NOS inhibitor | pIC50 [2]: 2.62 | inhibition of exhaled NO in asthma ([3]; 200 mg single oral dose): 95% | residual exhaled NO [3, 8]: < 1 ppb | change in exhaled NO ([3]; single oral dose 20 mg or 200 mg, healthy volunteers and asthmatics, 72 hour assessment): rapid reduction in exhaled NO | duration of the decrease in exhaled breath NO ([3]; single oral dose, healthy volunteers and asthmatics): 3 days

CC(=N)NCCCC[C@H](N)C(=O)O [L-NIL]
effect on iNOS expression as detected by immunoblotting [4]: did not affect iNOS expression | pIC50 [5]: ~5.24

O=C(Nc1c(Cl)cncc1Cl)c1ccc(OC(F)F)c(OCC2CC2)c1 [roflumilast]
pIC50 (PDE V): 5.10 | selectivity for PDE IV as compared with PDE I (PDE IV [6]; PDE I IC50/PDE IV IC50): at least 12,500 | selectivity for PDE IV as compared with PDE V (PDE IV [6]; PDE V IC50/PDE IV IC50): at least 10,000 | pIC50 (PDE I): < 5.00 | pIC50 (PDE IV [7]): 9.10
